Test results reported in patent publication US20220110985A1, “NUTRITIONAL COMPOSITION COMPRISING 2'FUCOSYLLACTOSE AND 3'GALACTOSYLLACTOSE” (N.V. Nutricia, priority 2019, published 2022).
Marks after values point to notes of the source that are not given here.

Experiments:
Caco-2 cell monolayer = test: DON-induced impairment of Caco-2 cell monolayer integrity (TEER, lucifer yellow flux); assay type: cell-based, human; conditions: for effect on DON-induced loss of epithelial barrier integrity (TEER, LY flux), in words: 24 h pretreatment (GLs 0.75 wt. %; 2′-FL 1 mg/ml), then DON 4.2 μM 24 h
Procedure: Beta1,3′-galactosyl-lactose (beta3′-GL), beta1,4′-galactosyllactose (beta4′-GL) and beta1,6′-galactosyl-lactose (beta6′-GL) were obtained from Carbosynth (Berkshire, UK). Alpha1,3′-galactosyl-lactose (alpha3′-GL) was obtained from Elicityl (Crolles, France). Purified deoxydivalenol (DON) (D0156; Sigma Aldrich, St Luis, Mo., USA) was dissolved in pure ethanol and stored at −20° C. Human epithelial colorectal adenocarcinoma (Caco-2) cells were obtained from American […] (Code HTB-37) (Manasse, Va., USA, passage 90-102).
Caco-2 cells were used according to established methods. In brief: cells were cultured in Dulbecco's modified Eagle medium (DMEM) and seeded at a density of 0.3×10^5 cells into 0.3 cm^2 high pore density (0.4 μm) inserts with a polyethylene terephthalate membrane (BD Biosciences, Franklin Lakes, N.J., USA) placed in a 24-well plate. The Caco-2 cells were maintained in a humidified atmosphere of 95 air and 5% CO2 at 37° C.
Caco-2 cell monolayers were thus grown in a transwell system, which is a model for intestinal barrier function. The monolayers were pretreated for 24 h with different GLs, including beta3′-GL, alpha3′-GL, beta4′-GL and beta6′-GL in a concentration of 0.75 wt. % of the GL, before being exposed to the fungal toxin deoxynivalenol (DON), which is a trigger and model compound to impair intestinal barrier. DON was diluted to a final concentration of 4.2 μM in complete cell medium and added to the apical side as well as to the basolateral side of the transwell inserts. […] Incubation with DON was 24 h.
Measurements of the transepithelial electrical resistance (TEER) and lucifer yellow (LY) permeability were conducted to investigate barrier integrity. For TEER measurements a Millicel-ERS voltohmmeter connected to a pair of chopsticks electrodes was used to measure the TEER values. Results are expressed as a percentage of the initial value. For paracellular tracer flux assay the membrane impermeable lucifer yellow (LY) (Sigma, St Luis, Mo., USA) was added in a concentration of 16 μg/ml to the apical compartment in the transwell plate for 4 h, and the paracellular flux was determined by measuring the fluorescence intensity in the basolateral compartment with a spectrophotofluorimeter (FLUOstar Optima, BMG Labtech, Offenburg, Germany) set at excitation and emission wavelengths of 410 and 520 nm, respectively. Release of interleukin-8 (IL-8 or CXCL8), which is a typical marker for inflammation, was quantified in the medium of the apical side and the basolateral side of the Caco-2 transwell inserts in response to the treatments. CXCL8 concentrations were measured by using the human IL-8 ELISA assay (BD Biosciences, Pharmingem, San Diego, Calif., USA) according to manufacturer's instructions. For more details on materials and methods see Akbari et al, 2016, Eur J Nutr. 56(5):1919-1930.

[1] = system: human peripheral blood mononuclear cells (PBMCs); test: PBMC cell activity (WST-1); assay type: cell-based; conditions: after 24 h; non-stimulated and CD3/CD28 stimulated conditions
Procedure: Isolation of PBMC from healthy donors: Human peripheral blood mononuclear cells (PBMC) from healthy donors were isolated from buffy coats (Sanquin, Amsterdam, the Netherlands). PBMC were obtained by centrifugation using Leucosep tubes (Greiner Bio-One). PBMC were collected and washed in PBS (Gibco, Thermo Fisher Technologies)+2% heat-inactivated FCS (Invitrogen), followed by hypotonic lysis of erythrocytes with sterile lysis buffer (0.15 M NH4Cl, 0.01 M KHCO3 and 0.1 mM EDTA, pH of 7.4 at 4° C., all from Merck, Darmstadt, Germany). After lysis, the PBMC were resuspended in freezing medium (70% RPMI 1640 medium (Gibco, Thermo Fisher Technologies) supplemented with 10% heat-inactivated FCS and 100 U/ml penicillin-streptomycin, 20% heat-inactivated FCS and 10% DMSO (Sigma)) and cryopreserved.
PBMC activation model: PBMC (0.2·10^6 cell/well) were cultured in 96-well flat bottom plates (Corning). For 24 hours the cells were pre-incubated with 2′-FL (Jennewein), 3′-GL (0-0.3% w/v; Carbosynth) or sodium butyrate (0.2 mM; Sigma Aldrich) and combinations thereof. Subsequently, the cells were CD3/CD28-activated (Pelicluster CD3 and Pelicluster CD28, Sanquin) for an additional 24 hours. After incubation, IFNγ was measured by ELISA in the supernatants (see below). To determine cell activity after stimulation, PBMC were incubated with cell proliferation reagent WST-1 (10 μl; Roche) and/or 10% Triton (5 μl; negative control). After 3 hours, absorbance was measured at OD450 nm and OD650 nm and cell activity was calculated according to manufacturer's instructions.

[2] = system: T84 human intestinal epithelial cells; test: T84 monolayer barrier integrity (TEER) with IL-4; assay type: cell-based; conditions: butyric acid 4 mM, TEER increase relative to t=0
Procedure: T84 human intestinal epithelial cells are commonly used to study intestinal barrier integrity in vitro. T84 cells (ATCC, USA) were cultured on 12 mm transwell inserts (0.4 μm, Corning Costrar, USA) in DMEM-F12 glutamax with penicillin-streptomycin (100 IU/ml), supplemented with 5% FBS-Hl. T84 cells were used 14 days after reaching confluence. Monolayers of T84 cultured on transwell filters were pre-incubated for 48 h with or without butyrate. These samples were subsequently incubated for an additional 48 h in the presence of IL-4 (25 ng/ml). IL-4 was added to the basolateral compartment; medium and additives were changed every 24 h.
Epithelial barrier integrity was assessed by measuring transepithelial resistance (TEER; Ω×cm^2) with the epithelial volt-ohm meter (EVOM; World Precision Instruments, Germany).
Results are shown in Table 5 where relative TEER values are presented. The 48 h and 96 h column is the TEER increase relative to t=0 value. IL-4 treatment disrupted the intestinal barrier function; however in the presence of butyrate this disruption was ameliorated.

human PBMC, unstimulated = test: Cytokine production of unstimulated PBMC (IL10, CCL20); assay type: cell-based
Source text: Isolation of PBMC from healthy donors: Human peripheral blood mononuclear cells (PBMC) from healthy donors were isolated from buffy coats (Sanquin, Amsterdam, the Netherlands). PBMC were obtained by centrifugation using Leucosep tubes (Greiner Bio-One). […] After lysis, the PBMC were resuspended in freezing medium (70% RPMI 1640 medium (Gibco, Thermo Fisher Technologies) supplemented with 10% heat-inactivated FCS and 100 U/ml penicillin-streptomycin, 20% heat-inactivated FCS and 10% DMSO (Sigma)) and cryopreserved. PBMC activation model: PBMC (0.2·10^6 cell/well) were cultured in 96-well flat bottom plates (Corning). For 24 hours the cells were pre-incubated with 2'-FL (Jennewein), 3'-GL (0-0.3% w/v; […] Sigma Aldrich) and combinations thereof. Subsequently, the cells were CD3/CD28-activated (Pelicluster CD3 and Pelicluster CD28, Sanquin) for an additional 24 hours. After incubation, IFNγ was measured by ELISA in the supernatants (see below). […] Roche) and/or 10% Triton (5 μl; negative control). […] Cytokine production of PBMC: PBMC were incubated with indicated reagents. After incubation, the supernatants were collected and IL2, IL6, IL10, IL13, IL21, TNFα, IFNγ, MIF, CCL1, CCL13, CCL17, CCL20, CCL22 and CXCL8-11 levels were measured by conducting a validated multiplex immunoassay based on Luminex technology (xMAP, Luminex Austin Tex. USA). Acquisition was conducted with the Biorad […] (Biorad laboratories, Hercules USA) in combination with xPONENT software version 4.2 (Luminex). Data was analyzed by 5-parametric curve fitting using Bio-Plex Manager software, version 6.1.1 (Biorad). After PBMC stimulation, cell culture supernatants were collected, after which cytokine responses were measured in order to test immune responsiveness of the cells. The levels of cytokines measured in stimulated conditions were corrected for the (low) levels of the cytokines measured in non-stimulated conditions. In addition, since each donor is reacting in its own efficiency onto the T cell stimulus, we calculated the individual index of cytokine response by dividing the intervention induced response by the basal stimulated response.

[3] = Caco-2 monolayer, DON 4.2 μM, 2′-FL 1 mg/ml

## OC[C@H]1O[C@H](O[C@H]2[C@@H](O)[C@@H](CO)O[C@@H](O[C@H]3[C@H](O)[C@@H](O)C(O)O[C@@H]3CO)[C@@H]2O)[C@H](O)[C@@H](O)[C@H]1O (stereo partly drawn) [alpha3′-GL, Gal (alpha 1-3)-Gal (beta 1-4)-Glc]
Caco-2 cell monolayer
  effect on DON-induced loss of epithelial barrier integrity (TEER, LY flux), in words: did not prevent the DON-induced disrupted intestinal barrier

## OC[C@H]1O[C@@H](OC[C@H]2O[C@@H](O[C@H]3[C@H](O)[C@@H](O)C(O)O[C@@H]3CO)[C@H](O)[C@@H](O)[C@H]2O)[C@H](O)[C@@H](O)[C@H]1O (stereo partly drawn) [beta6′-GL, Gal (beta 1-6)-Gal (beta 1-4)-Glc]
Caco-2 cell monolayer
  effect on DON-induced loss of epithelial barrier integrity (TEER, LY flux), in words: did not show a significant effect

## OC[C@H]1O[C@@H](O[C@@H]2[C@H](O)[C@@H](O)[C@H](O[C@H]3[C@H](O)[C@@H](O)C(O)O[C@@H]3CO)O[C@@H]2CO)[C@H](O)[C@@H](O)[C@H]1O (stereo partly drawn) [beta4′-GL, Gal (beta 1-4)-Gal (beta 1-4)-Glc]
Caco-2 cell monolayer
  effect on DON-induced loss of epithelial barrier integrity (TEER, LY flux), in words: did not show a significant effect

## CC1=C[C@H]2O[C@@H]3[C@H](O)C[C@](C)([C@@]2(CO)[C@H](O)C1=O)[C@]31CO1 [DON, deoxynivalenol]
Caco-2 cell monolayer; [3]
  Lucifer yellow flux: 530.8 (3.975)*** ng/ml (cm^2xh)
  TEER (% of initial value) Mean (s.e.): 34.33 (1.088)*** % of initial value

## CCCC(=O)O [butyrate, butyric acid]
[1]
  Immune cell activity as measured by WST, in words: did not influence immune cell metabolic activity
[2]; 48 h pre-incubation
  % TEER at 48 h: 79 (25) %
[2]; additional 48 h with IL-4 25 ng/ml
  % TEER at 96 h (IL-4): 26 (16) %
Human PBMC, unstimulated; 0.2% 2′-FL, 0.2 mM butyrate
  IL10 level as compared to blanc control, in words: did not have an effect
Human PBMC, unstimulated; unstimulated PBMC
  CCL20 level as compared to blanc control, in words: did not have a statistically significant effect
Human PBMC, unstimulated; unstimulated, 0.2% w/v 2′-FL, 0.2 mM butyrate, blanc = 1, observed
  Relative IL10 level, mean (se): 1.911 (0.203)
Human PBMC, unstimulated; unstimulated, 0.2% w/v 2′-FL, 0.1 w/v % 3′-GL, 0.2 mM butyrate, blanc = 1, observed
  Relative CCL 20 mean (s.e.): 1.053 (0.127)
